Results published in article PMC3368874, “Characterization of 4-HNE Modified L-FABP Reveals Alterations in Structural and Functional Dynamics” (PLoS ONE, 2012).
Read-outs that look alike come from different tables or passages of the source.

Legend:
[1] = target: T1, 4-HNE modified rL-FABP (Mus musculus, UniProt P12710); test: ANS equilibrium binding to 4-HNE treated rL-FABP (fluorescence)
T1 construct: made in house; host or cells: Escherichia coli BL21 (DE3)
T1 sequence (P12710 1-127): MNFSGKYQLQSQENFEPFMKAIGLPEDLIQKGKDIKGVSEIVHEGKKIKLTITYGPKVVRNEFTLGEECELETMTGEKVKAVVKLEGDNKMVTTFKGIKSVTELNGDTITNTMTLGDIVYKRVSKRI
Procedure: (§1) Steady-state fluorescence spectra were measured using a HORIBA JOBIN YVON FluoroMax-3 Fluorometer (Edison, NJ USA). The binding of ANS to rL-FABP was monitored following excitation at 370 nm and emission at 475 nm, with slits set at 2 and 4 nm, respectively. Measurements were taken at ambient temperature in a 0.7 mL fluorescence cuvette (Starna Cells, Atascadero, CA). Equilibrium binding studies were conducted with saturating concentrations of ANS according to previous studies, [30] with slight modifications. Briefly, ANS (0–45 µM) was titrated into 1 µM rL-FABP in 50 mM tricine buffer (pH 8.0), mixed for 30 seconds, and emission spectra were recorded. rL-FABP was either treated with 4-HNE (0.1X [5.93 µM], 1X [53.93 µM], or 5X [245.09 µM]) or the arginine blocker phenylglyoxal (PG) (10 mM), or a combination of the two (PG +5X). Following treatments, protein was dialyzed overnight in tricine buffer, pH 8.0. Preparation of ANS was conducted according to Denicola et al., where it was solubilized in absolute ethanol and quantified at Abs372 with an extinction coefficient of 8,000 cm^−1·M^−1 prior to use.
(§2) Statistical analysis and generation of graphs was performed using GraphPad Prism (v 4.02; GraphPad Software, San Diego, CA) and SigmaPlot (v10.0; Systat Software, San Jose, CA). Statistical differences between control and treated samples were assessed using a paired Student’s t test or a one-way ANOVA with Tukey’s post-test. Differences were considered significant if p<0.05. Nonlinear regression (curve fit) analysis was performed using a two-site binding hyperbola (eq 1), where ΔF is the enhancement in fluorescence intensity upon the binding of ANS to L-FABP to a point of saturation (Bmax). [drawing 1] (1)

[2] = target: T2, apo rL-FABP (Mus musculus, UniProt P12710); test: Thermal denaturation of apo rL-FABP (UV-monitored)
T2 construct: made in house; host or cells: Escherichia coli BL21 (DE3)
T2 sequence (P12710 1-127): T1 sequence (P12710 1-127)
Procedure: (§3) The stability of rL-FABP was assessed using UV-monitored heating experiments. Native (apo and holo) and 4-HNE modified (apo and holo) rL-FABP (0.8 mg/ml) was thermally denatured in 50 mM tricine buffer (pH 8.0) at 40–95°C over 1.5 hours in a 0.7 mL quartz cell (Starna Cells). Absorbance of rL-FABP was monitored at 260–360 nm using a Chirascan Plus Spectrometer (Applied Photophysics, Leatherhead, Surrey, UK) once per minute. Temperature was continuously ramped 1°C/min. Light scattering was recorded continuously at 360 nm to monitor protein aggregation. Temperature of aggregation (Tm) was determined using Global Analysis T-Ramp software provided by Applied Photophysics (Pro-Data Global3 v1.1.0) following baseline correction.

[3] = target: T3, holo rL-FABP (Mus musculus, UniProt P12710); test: Thermal denaturation of holo rL-FABP (UV-monitored); conditions: semi-quantitative
T3 construct: made in house; host or cells: Escherichia coli BL21 (DE3)
T3 sequence (P12710 1-127): T1 sequence (P12710 1-127)
Procedure: as §3

[4] = parameters: method as in PMID 12437335; conditions: cited from earlier work
[5] = target: T4, rL-FABP (Mus musculus, UniProt P12710); test: ANS equilibrium binding to native rL-FABP (fluorescence)
T4 construct: made in house; host or cells: Escherichia coli BL21 (DE3)
T4 sequence (P12710 1-127): T1 sequence (P12710 1-127)
Procedure: as §1, §2

[6] = target: T5, PG treated rL-FABP (Mus musculus, UniProt P12710); test: ANS equilibrium binding to phenylglyoxal (PG) treated rL-FABP
T5 construct: made in house; host or cells: Escherichia coli BL21 (DE3)
T5 sequence (P12710 1-127): T1 sequence (P12710 1-127)
Procedure: as §1, §2

[7] = target: T6, PG + 5X 4-HNE treated rL-FABP (Mus musculus, UniProt P12710); test: ANS equilibrium binding to PG + 5X 4-HNE treated rL-FABP
T6 construct: made in house; host or cells: Escherichia coli BL21 (DE3)
T6 sequence (P12710 1-127): T1 sequence (P12710 1-127)
Procedure: as §1, §2

[8] = target: T4, rL-FABP; test: Displacement of ANS by fatty acids, WT rL-FABP; assay type: binding; conditions: for bi (counts inhibitable) / Ki: 45 µM ANS, 1 µM protein; for Ki: read-out: ki (inhibition constant)
Procedure: (§4) Lipid displacement assays were adapted from previous publications, [30]. Briefly, lipids were used to displace ANS bound to rL-FABP to assess how 4-HNE modification affects affinity towards more biologic ligands. Lipid stocks were diluted in absolute ethanol (10 mM, 5 mM, 1 mM, 0.1 mM) and prepared in a nitrogen gas chamber. Using conditions similar to ANS binding, increasing concentrations of FAs [stearate (SA), oleate (OA), and LA] were titrated into a pre-equilibrated solution containing 45 µM ANS, 1 µM r-LFABP, and 50 mM tricine (pH 8.0). The sample was mixed for an additional 30 seconds and the excitation and emission of ANS was measured as mentioned, where the loss of fluorescence indicates affinity towards the lipid.
(§5) For the displacement assays, one-site inhibition analysis of the data was utilized based on the fit of the data (instead of a two-site inhibition analysis) (eq2). Fluorescence counts that are inhibitable are denoted as bi, and residual counts are br. The concentration of OA, SA or LA is denoted as [FA]. The Hill constant, η, indicates the cooperativity between the binding sites, where if η >1 the sites are positively cooperative, η <1 the site are negatively cooperative, and if η = 1 the sites are non-cooperative. [drawing 2] (2)

[9] = target: T7, 4-HNE adducted rL-FABP (Mus musculus, UniProt P12710); test: Displacement of ANS by fatty acids, 1X 4-HNE treated rL-FABP; assay type: binding; conditions: for bi (counts inhibitable) / Ki: 1X 4-HNE (53.95 µM) treated rL-FABP; for Ki: read-out: ki (inhibition constant); for br (counts residual) / n (hill coefficient): 1X 4-HNE treated rL-FABP; for reduction of maximal binding to the FA by 4-HNE: 1X 4-HNE treated versus WT rL-FABP
T7 construct: made in house; host or cells: Escherichia coli BL21 (DE3)
T7 sequence (P12710 1-127): T1 sequence (P12710 1-127)
Procedure: as §4, §5

[10] = rL-FABP treated with 1X 4-HNE (53.93 µM)
[11] = rL-FABP treated with 5X 4-HNE (245.09 µM)
[12] = rL-FABP treated with 5X 4-HNE + PG

## CCCCCC(O)C=CC=O (centres unmarked) [4-HNE, 4-hydroxy-2-nonenal]
[1]; saturation analyses
  reduction of capacity for ligand when adducted by 4-HNE: approximately 50%
[2]; 0.1X 4-HNE (4.93 µM)
  Tm of apo rL-FABP: 70.09±0.004 °C
[2]; 1X 4-HNE (49.26 µM)
  Tm of apo rL-FABP: 68.56±0.05 °C
[2]; 5X 4-HNE (246.31 µM)
  Tm of apo rL-FABP: 66.38±0.15 °C
[2]; P<0.01
  ΔTm of apo L-FABP by 4-HNE adduction: 5.44 °C
[3]; 0.1X 4-HNE (4.93 µM)
  Tm of holo rL-FABP: 83.84±0.39 °C
[3]; 1X 4-HNE (49.26 µM)
  Tm of holo rL-FABP: 84.89±0.48 °C
[3]; 5X 4-HNE (246.31 µM)
  Tm of holo rL-FABP: 83.698±0.53 °C
[4]
  half-life: ~2 min

## O=S(=O)(O)c1cccc2cccc(Nc3ccccc3)c12 [ANS, 1-Anilinonaphthalene-8-Sulfonic Acid]
[5]
  Kd: 0.347 ± 0.153 µM
[5]; native rL-FABP (0X 4-HNE), 1 µM protein, primary site
  Bmax1: 540,200±142,500 AFU
[5]; native rL-FABP, secondary site
  Bmax2: 500,500±116,800 AFU
[5]; read-out: Kd2, native rL-FABP, secondary site
  Kd: 6.17 ± 1.44 µM
[1]; 5X 4-HNE versus native (kd2)
  decrease in the affinity for ANS, secondary binding site: ~6 fold
[1]; Kd1, rL-FABP treated with 0.1X 4-HNE (5.93 µM)
  Kd: 0.132 ± 0.074 µM
[1]; Kd1, rL-FABP treated with 1X 4-HNE (53.93 µM)
  Kd: 0.135 ± 0.074 µM
[1]; Kd1, rL-FABP treated with 5X 4-HNE (245.09 µM)
  Kd: 0.395 ± 0.101 µM
[1]; rL-FABP treated with 0.1X 4-HNE (5.93 µM)
  Bmax1: 175,500±36,800 AFU
[1]; [10]
  Bmax1: 123,000±28,900 AFU
  Bmax2: 548,900±23,700 AFU
[1]; [11]
  Bmax1: 238,100±21,700 AFU
  Bmax2: 537,400±81,900 AFU
[1]; read-out: Kd2, rL-FABP treated with 0.1X 4-HNE (5.93 µM)
  Kd: 7.4 ± 1.07 µM
[1]; read-out: Kd2, rL-FABP treated with 1X 4-HNE (53.93 µM)
  Kd: 4.99 ± 0.71 µM
[1]; read-out: Kd2, rL-FABP treated with 5X 4-HNE (245.09 µM)
  Kd: 34.2 ± 13.9 µM
[6]
  Kd: 0.165 ± 0.111 µM
[6]; rL-FABP treated with PG 10 mM
  Bmax1: 83,200±23,200 AFU
  Bmax2: 446,400±17,500 AFU
[6]; read-out: Kd2, rL-FABP treated with PG 10 mM
  Kd: 7.18 ± 0.121 µM
[7]
  Kd: 0.326 ± 0.127 µM
[7]; [12]
  Bmax1: 168,200±22,900 AFU
  Bmax2: 512,200±64,500 AFU
[7]; read-out: Kd2, rL-FABP treated with 5X 4-HNE + PG
  Kd: 27.9 ± 10.7 µM

## CCCCC/C=C\C/C=C\CCCCCCCC(=O)O [Linoleic Acid]
[8]
  br (counts residual): 164,800±43,900 AFU
  n (hill coefficient): 1.38±0.26
  bi (counts inhibitable): 888,000±54 AFU
  Ki: 1.56 ± 0.29 µM
[9]
  bi (counts inhibitable): 449,500±11,400 AFU
  Ki: 2.8 ± 0.3 µM
  br (counts residual): 96,300±9,200 AFU
  n (hill coefficient): 1.76±0.14
  reduction of maximal binding to the FA by 4-HNE: 49%

## CCCCCCCC/C=C\CCCCCCCC(=O)O [Oleic Acid]
[8]
  br (counts residual): 171,600±19,800 AFU
  n (hill coefficient): 2.31±0.29
  bi (counts inhibitable): 680,200±26,500000 AFU
  Ki: 5.88 ± 1.45 µM
[9]
  bi (counts inhibitable): 457,600±26,400 AFU
  Ki: 0.69 ± 0.097 µM
  br (counts residual): 63,500±19,200 AFU
  n (hill coefficient): 0.81±0.0999
  reduction of maximal binding to the FA by 4-HNE: 32.7%

## CCCCCCCCCCCCCCCCCC(=O)O [Stearic Acid]
[8]
  br (counts residual): 145,800±14,400 AFU
  n (hill coefficient): 2.75±0.264
  bi (counts inhibitable): 698,800±19,400 AFU
  Ki: 1.19 ± 0.13 µM
[9]
  bi (counts inhibitable): 411,800±36,800 AFU
  Ki: 4.41 ± 1.66 µM
  br (counts residual): 81,300±30,500 AFU
  n (hill coefficient): 2.74±0.37
  reduction of maximal binding to the FA by 4-HNE: 41%

B1: apo rL-FABP: purified, delipidated recombinant mouse liver fatty acid-binding protein (unbound) (protein, UniProt P12710 1-127, looked up)
Fatty acid-binding protein, …: T1 sequence (P12710 1-127)
modifications: delipidated
[2]; native apo rL-FABP, 0X 4-HNE
  Tm (temperature of aggregation): 71.82±0.09 °C

B2: holo rL-FABP: recombinant mouse L-FABP incubated with 1 mM linoleic acid (lipid-bound) (protein, UniProt P12710 1-127, looked up)
Fatty acid-binding protein, …: T1 sequence (P12710 1-127)
modifications: linoleic acid bound
[3]; native holo rL-FABP (linoleic acid bound)
  Tm (temperature of aggregation): 86.09±0.57 °C
